Test results from patent US9067897B2, “2,4-Diaminoquinazolines for spinal muscular atrophy” (Families of Spinal Muscular Atrophy, priority 2004, dated 2015).

System: SMN2 promoter
Assay: SMN2 promoter assay (β-lactamase reporter) in NSC-34 cells
Assay type: cell-based, mouse
Conditions: Mus musculus, SMN2 promoter driving β-lactamase, 12 point dose curve, average of 3-6 dose curve experiments
Source text: All compounds were screened using an in vitro based SMN2 promoter assay. We used NSC-34 cells, a hybrid cell line between mouse spinal cord cells and mouse neuroblastoma cells. NSC-34 cells harbor an expression plasmid containing a 3.4 kb promoter fragment of the SMN2 gene driving β-lactamase expression.
[…] […] CCF2-AM diffuses across the plasma membrane and is converted into an active β-lactamase substrate by cytoplasmic esterase. […] The fold induction is proportional to the extent of β-lactamase produced and in turn proportional to SMN2 promoter activation for a given compound relative to vehicle (DMSO) control. […] These values are used to rank activities of the compounds and derive structure activity relationship.

EC50 [nM] | Compound
< 1000 | Cc1ccc(COc2cccc3nc(N)nc(N)c23)cc1 [Example 1, 5-(4-Methylbenzyloxy)quinazoline-2,4-diamine]
< 1000 | Nc1nc(N)c2c(OCc3ccc(Cl)cc3)cccc2n1 [Example 2, 5-(4-Chlorobenzyloxy)quinazoline-2,4-diamine]
1000 to 5000 | Nc1nc(N)c2c(OCC(F)(F)F)cccc2n1 [Example 3, 5-(2,2,2-Trifluoroethoxy)quinazoline-2,4-diamine]
< 1000 | Nc1nc(N)c2c(OCc3ccc(I)cc3)cccc2n1 [Example 4, 5-(4-Iodobenzyloxy)quinazoline-2,4-diamine]
< 1000 | Nc1nc(N)c2c(OCc3ccccc3Cl)cccc2n1 [Example 6, 5-(2-Chlorobenzyloxy)quinazoline-2,4-diamine]
< 1000 | Cc1ccccc1COc1cccc2nc(N)nc(N)c12 [Example 7, 5-(2-Methylbenzyloxy)quinazoline-2,4-diamine]
< 1000 | Cc1ccc(CCOc2cccc3nc(N)nc(N)c23)cc1 [Example 8, 5-(2-p-Tolylethoxy)quinazoline-2,4-diamine]
< 1000 | Nc1nc(N)c2c(OCCc3ccc(Cl)cc3)cccc2n1 [Example 9, 5-[2-(4-Chlorophenyl)ethoxy]quinazoline-2,4-diamine]
< 1000 | Cc1cccc(COc2cccc3nc(N)nc(N)c23)c1 [Example 10, 5-(3-Methylbenzyloxy)quinazoline-2,4-diamine]
< 1000 | Nc1nc(N)c2c(OCc3cccnc3)cccc2n1 [Example 11, 5-(Pyridin-3-ylmethoxy)quinazoline-2,4-diamine]
< 1000 | CC(Oc1cccc2nc(N)nc(N)c12)c1ccccc1 (centres unmarked) [Example 12, 5-(1-Phenylethoxy)quinazoline-2,4-diamine]
< 1000 | Nc1nc(N)c2c(OCC3CC=CCC3)cccc2n1 (centres unmarked) [Example 13, 5-(Cyclohex-3-enylmethoxy)quinazoline-2,4-diamine]
< 1000 | Nc1nc(N)c2c(OCC3CCC3)cccc2n1 [Example 14, 5-(Cyclobutylmethoxy)quinazoline-2,4-diamine]
< 1000 | COCCOc1cccc2nc(N)nc(N)c12 [Example 15, 5-(2-Methoxyethoxy)quinazoline-2,4-diamine]
< 1000 | Nc1nc(N)c2c(OCC3CC3)cccc2n1 [Example 16, 5-(Cyclopropylmethoxy)quinazoline-2,4-diamine]
1000 to 5000 | Nc1nc(N)c2c(OCC3CCCCC3)cccc2n1 [Example 17, 5-(Cyclohexylmethoxy)quinazoline-2,4-diamine]
< 1000 | Nc1nc(N)c2c(OCC3CCCC3)cccc2n1 [Example 18, 5-(Cyclopentylmethoxy)quinazoline-2,4-diamine]
< 1000 | C=CCOCCOc1cccc2nc(N)nc(N)c12 [Example 19, 5-(2-Allyloxyethoxy)quinazoline-2,4-diamine]
< 1000 | CN1CCCC(COc2cccc3nc(N)nc(N)c23)C1 (centres unmarked) [Example 20, 5-(1-Methylpiperidin-3-ylmethoxy)quinazoline-2,4-diamine]
< 1000 | Nc1nc(N)c2c(OCc3ccco3)cccc2n1 [Example 21, 5-(Furan-2-ylmethoxy)quinazoline-2,4-diamine]
< 1000 | Nc1nc(N)c2c(OCc3cccs3)cccc2n1 [Example 22, 5-(Thiophen-2-ylmethoxy)quinazoline-2,4-diamine]
1000 to 5000 | Cc1ccc(Cc2cccc3nc(N)nc(N)c23)cc1 [Example 23, 5-(4-Methylbenzyl)quinazoline-2,4-diamine]
< 1000 | Nc1nc(N)c2c(Cc3ccccc3)cccc2n1 [Example 24, 5-Benzylquinazoline-2,4-diamine]
< 1000 | Nc1nc(N)c2c(Cc3ccc(Cl)cc3)cccc2n1 [Example 25, 5-(4-Chlorobenzyl)Quinazoline-2,4-Diamine]
< 1000 | COc1ccc(Cc2cccc3nc(N)nc(N)c23)cc1 [Example 26, 5-(4-Methoxybenzyl)Quinazoline-2,4-Diamine]
< 1000 | Nc1nc(N)c2c(OCCCc3ccc(Cl)cc3)cccc2n1 [Example 27, 5-[3-(4-Chlorophenyl)propoxy]quinazoline-2,4-diamine]
< 1000 | CC(Oc1cccc2nc(N)nc(N)c12)c1cccc(Cl)c1 (centres unmarked) [Example 28, 5-[1-(3-Chlorophenyl)ethoxy]quinazoline-2,4-diamine]

EC50 [nM] | Compound
< 1000 | Nc1nc(N)c2c(SCc3ccc(Cl)cc3)cccc2n1 [Example 29, 5-(4-Chlorobenzylsulfanyl)quinazoline-2,4-diamine]
< 1000 | Cc1ccc(C#Cc2cccc3nc(N)nc(N)c23)cc1 [Example 30, 5-p-Tolylethynylquinazoline-2,4-diamine]
1000 to 5000 | Nc1nc(N)c2c(S(=O)(=O)c3ccc(Cl)cc3)cccc2n1 [Example 31, 5-(4-Chlorobenzenesulfonyl)quinazoline-2,4-diamine]
5000 to 10000 | CC(=O)Nc1nc(NC(C)=O)c2c(OCc3ccc(Cl)cc3)cccc2n1 [Example 32, N-[2-Acetylamino-5-(4-chlorobenzyloxy)quinazolin-4-yl]acetamide]
1000 to 5000 | CC1=NOC(COc2cccc3nc(N)nc(N)c23)C1 (centres unmarked) [Example 33, 5-(3-Methyl-4,5-dihydroisoxazol-5-ylmethoxy)quinazoline-2,4-diamine]
< 1000 | Nc1nc(N)c2c(OCc3ccoc3)cccc2n1 [Example 34, 5-(Furan-3-ylmethoxy)quinazoline-2,4-diamine]
< 1000 | Nc1nc(N)c2c(OCc3ccccc3)cccc2n1 [Example 35, 5-Benzyloxyquinazoline-2,4-diamine]
< 1000 | Nc1nc(N)c2c(OCc3ccccn3)cccc2n1 [Example 36, 5-(Pyridin-2-ylmethoxy)Quinazoline-2,4-diamine]
< 1000 | Nc1nc(N)c2c(OCCc3ccccc3)cccc2n1 [Example 37, 5-Phenethyloxyquinazoline-2,4-diamine]
< 1000 | CCCCCCCCOc1cccc2nc(N)nc(N)c12 [Example 38, 5-Octyloxyquinazoline-2,4-diamine]
< 1000 | Nc1nc(N)c2c(OC3Cc4ccccc4C3)cccc2n1 [Example 40, 5-(Indan-2-yloxy)quinazoline-2,4-diamine]
5000 to 10000 | Nc1nc(N)c2c(O[C@H]3CCc4ccccc43)cccc2n1 [Example 41, 5-((S)-Indan-1-yloxy)quinazoline-2,4-diamine]
< 1000 | C[C@H](Oc1cccc2nc(N)nc(N)c12)c1ccccc1 [Example 42, 5-((S)-1-Phenylethoxy)quinazoline-2,4-diamine]
< 1000 | Nc1nc(N)c2c(COc3ccc(Cl)cc3)cccc2n1 [Example 43, 5-(4-Chlorophenoxymethyl)quinazoline-2,4-diamine]
< 1000 | Cc1ccc(OCc2cccc3nc(N)nc(N)c23)cc1 [Example 44, 5-p-Tolyloxymethylquinazoline-2,4-diamine]
< 1000 | Nc1nc(N)c2c(COc3ccc(F)cc3)cccc2n1 [Example 45, 5-(4-Fluorophenoxymethyl)quinazoline-2,4-diamine]
< 1000 | Nc1nc(N)c2c(Cc3ccsc3)cccc2n1 [Example 46, 5-Thiophen-3-ylmethylquinazoline-2,4-diamine]
< 1000 | Nc1nc(N)c2c(OCc3ccsc3)cccc2n1 [Example 47, 5-(Thiophen-3-ylmethoxy)quinazoline-2,4-diamine]
< 1000 | CC(Oc1cccc2nc(N)nc(N)c12)c1ccncc1 (centres unmarked) [Example 48, 5-(1-Pyridin-4-ylethoxy)quinazoline-2,4-diamine]
< 1000 | CC(Oc1cccc2nc(N)nc(N)c12)c1ccc(Cl)cc1 (centres unmarked) [Example 49, 5-[1-(4-Chlorophenyl)ethoxy]quinazoline-2,4-diamine]
< 1000 | CCC(Oc1cccc2nc(N)nc(N)c12)c1ccc(Cl)cc1 (centres unmarked) [Example 50, 5-[1-(4-Chlorophenyl)propoxy]quinazoline-2,4-diamine]
5000 to 10000 | CC(C)(C)C(Oc1cccc2nc(N)nc(N)c12)c1ccc(Cl)cc1 (centres unmarked) [Example 51, 5-[1-(4-Chlorophenyl)-2,2-dimethylpropoxy]quinazoline-2,4-diamine]
< 1000 | Nc1nc(N)c2c(OC(c3ccccc3)c3ccccc3)cccc2n1 [Example 52, 5-Benzhydryloxyquinazoline-2,4-diamine]
< 1000 | Cc1cc(COc2cccc3nc(N)nc(N)c23)no1 [Example 53, 5-(5-Methylisoxazol-3-ylmethoxy)quinazoline-2,4-diamine]
< 1000 | Nc1nc(N)c2c(OCc3ccc4c(c3)OCO4)cccc2n1 [Example 54, 5-(Benzo[1,3]dioxol-5-ylmethoxy)quinazoline-2,4-diamine]
< 1000 | Nc1nc(N)c2c(OCC3CCCCO3)cccc2n1 (centres unmarked) [Example 55, 5-(Tetrahydropyran-2-ylmethoxy)quinazoline-2,4-diamine]
< 1000 | C[C@@H](Oc1cccc2nc(N)nc(N)c12)c1ccccc1 [Example 56, 5-((R)-1-Phenylethoxy)quinazoline-2,4-diamine]

Compound | EC50 [nM]
Nc1nc(N)c2c(OCc3cccc(Cl)c3)cccc2n1 [Example 5, 5-(3-Chlorobenzyloxy)quinazoline-2,4-diamine] | < 1000

Same assay, conditions: SMN2 promoter driving β-lactamase, 12 point dose curve, average of 3-6 dose curve experiments

EC50 [nM] | Compound
< 1000 | 2-(2,4-Diaminoquinazolin-5-yloxy)-1-(4-fluorophenyl)ethanol [Example 167]
< 1000 | 5-(3-Fluorobenzyloxy)quinazoline-2,4-diamine [Example 102]
< 1000 | 5-[1-(4-fluorophenyl)-1-methyl-ethoxy]-quinazoline-2,4-diamine [Example 101]

Compound | EC50 [nM]
5-((1S,2R,5S)-6,6-Dimethylbieyclo[3.1.1]hept-2-ylmethoxy)quinazoline-2,4-diamine [Example 130] | < 1000
